Assay results from article PMC6581923 (Journal of Molecular Neuroscience, 2018).
Entries after “also recorded” stand apart in the source; their conditions may differ.

Experiments:
Type in all cases: in vivo, rat (male)
[1] = test system: retina (BCCAO-induced retinopathy); assay: Retinal layer thickness / morphology after bilateral carotid artery occlusion (BCCAO), eye drops
Procedure: (§1) Adult male rat litters were housed in the animal facility in individual cages in a 12 h light-dark cycle with food and water ad libitum. Animal housing, care and application of experimental procedures were in accordance with institutional guidelines under approved protocols (No: BA02/2000–26/2017, University of Pecs). Under isoflurane anesthesia, common carotid arteries were exposed on both sides through a midline incision and then ligated with a 3–0 filament. A group of animals (sham group) underwent all steps of the operating procedure except ligation of the carotid arteries. Immediately following the operation, the right eye of the animals was treated with derivatives of PACAP (PACAP-TAT /n = 17/ or VIP-TAT /n = 17/) eye drops (1 μg/drop). Dose and schedule of the eye drop treatments were based on our previous experiments (Werling et al. [2016]). In the experiment for histological analysis, the different derivatives were dissolved in benzalkonium solution for ophthalmic use (solutio ophthalmica cum benzalkonio (SOCB)). The left eye, serving as a control, was treated with vehicle containing neither PACAP-TAT nor VIP-TAT. Animals were treated for five consecutive days, twice a day with one drop of drug, under brief isoflurane anesthesia (max. 5 min).
(§2) Fourteen days after the operation, rats (n = 10 SHAM and n = 24 BCCAO) were killed with anesthetic and the eyes were processed for histology. The eyes were removed and the retinas were solved in phosphate buffered saline (PBS), fixed in 4% paraformaldehyde dissolved in 0.1 M phosphate buffer (PB) (Sigma, Budapest, Hungary) and embedded in Durcupan ACM resin (Sigma, Budapest, Hungary). Retinas were cut at 2 μm and stained with toluidine blue dye (Sigma, Hungary). Sections were mounted in DPX medium (Sigma, Hungary) and photographs were taken with a digital CCD camera using the Spot program. Central retinal areas within 1 mm from the optic nerve were used (n = 5 measurements from one tissue block). The following parameters were measured: (i) cross-section of the retina from the outer limiting membrane (OLM) to the inner limiting membrane (ILM), (ii) the width of individual retinal layers (outer nuclear layer [ONL], outer plexiform layer [OPL], inner nuclear layer [INL], inner plexiform layer [IPL]), (iii) the number of cells/100 μm section length in the GCL, and the (iv) number of cells/[…]. Results are presented as mean ± SEM. Statistical comparisons were made using the two-way ANOVA test followed by Tukey’s post hoc analysis.
(§3) Fig. 4 Quantification of retinal layers in SHAM+SOCB, in SHAM+PACAP-TAT, in BCCAO+SOCB, and in BCCAO+PACAP-TAT animals; the right eye was treated with PACAP-TAT eye drops, the left eye served as controls receiving only SOCB. Comparison of all retinal layers (a–e). […] Statistical significance (*p < 0.05 vs. SHAM+SOCB retinas, #p < 0.05 vs. BCCAO+SOCB retinas) was calculated by two-way ANOVA followed by Fischer’s post hoc test
as §3, with “6” for “4”, “SHAM+VIP-TAT,” for “SHAM+PACAP-TAT,”, “BCCAO+VIP-TAT” for “BCCAO+PACAP-TAT”, “VIP-TAT” for “PACAP-TAT”, “control” for “controls”

[2] = test system: retina (BCCAO-induced retinopathy); assay: Number of cells in retinal nuclear layers and GCL after BCCAO, eye drops; conditions: eye drops 1 μg/drop, twice a day, five days, vs BCCAO-induced degenerated retinas, 14 days
Procedure: as §1, §2
(§4) Fig. 5 Quantification of the number of cells/100 μm GCL length (a), the number of cells/500 μm^2 ONL (b) and INL (c) areas in SHAM+SOCB, in SHAM+PACAP-TAT, in BCCAO+SOCB, and in BCCAO+PACAP-TAT animals. Statistical significance (*p < 0.05 vs. SHAM+SOCB retinas, #p < 0.05 vs. BCCAO+SOCB retinas) was calculated by two-way ANOVA followed by Bonferroni’s post hoc test
as §4, with “Fig. 7” for “Fig. 5”, “in SHAM+VIP-TAT,” for “in SHAM+PACAP-TAT,”, “in BCCAO+VIP-TAT” for “in BCCAO+PACAP-TAT”

[3] = Efficiency of Traversing Eye to Retina (EtE) of FITC labeled peptides given in eye drops
Procedure: In order to trace the drugs, peptides were labeled with fluorescein isothiocyanate (FITC) using a FITC Protein Labeling Kit from ChangRu Biotech Ltd. (Guangzhou, China) according to the manufacturer’s protocol. After the labeling reaction, gel filtration was used to remove the free FITC. In order to determine the amount of the residual free FITC, the peptides were submitted to ultrafiltration using Amicon Ultra – 0.5 mL (Millipore, USA) with a molecular sieve of 2000 Da. After centrifugation (1000×g, 10 min) the peptide was subjected to fluorescence measurements performed with the multi-wavelength scanner Victor 3 (GE, USA) at the excitation of 495 nm and the emission of 520 nm. Protein concentrations were determined using the K4000 Bradford Protein Quantification Kit (Innovative, Guangzhou, China). The labeling efficiency was calculated using the following formula: label efficiency (LE) = fluorescence value (FV)/peptide mass (mol) (PM), representing the fluorescence intensity (AU) per mol of peptide (mol).
Male rats with body weight from 160 to 180 g were purchased from the Medical and Experimental Animal Center (Guangdong, China). Rats were randomly assigned to one of the experimental groups (7 rats per group) and subjected to eye drops with FITC labeled peptides (100 nmol/kg) and PBS as control. Rats were sacrificed by anesthesia 2 h after the eye drop administration and the retina was separated, weighed, washed three times with PBS and divided into two parts. One part was prepared on the glass slide with glycerin and subjected to fluorescence microscopic observation of FITC with 495 nm excitation/520 nm emission. All images, focused on the left upper regions of the retina, were taken with 500 ms exposure time. The other part of the retina was subjected to grinding and ultrasonication in PBS at a concentration of 100 mg weight tissue per milliliter of PBS. The supernatant was collected by centrifugation and the fluorescence intensity in the supernatant (100 uL) was determined. The valid fluorescence intensity (FI) for each sample treated with FITC labeled peptide was corrected by subtracting the fluorescence value of the sample treated with PBS, which was used as a blank background. The Efficiency of Traversing Eye to Retina (EtE) was expressed as the percentages of the FITC labeled peptide mass in the retina to the total FITC labeled peptide mass. The EtE was calculated using the following formula: EtE = tFI/LE/PW × 100% (tFI presents the fluorescence intensity of retina (arbitration unit, AU); LE presents the label efficiency of each peptide which has been determined above; PW presents the peptide mass (mole)).
Fig. 1 The efficiency of FITC labeled PACAP/PACAP-TAT (a, b) and VIP/VIP-TAT (c, d) traversing to retina given in eye drops. The retina was separated 2 h after the eye drops and submitted to the fluorescence microscopic observation of FITC fluorescence signal (A, C) and the calculation of Efficiency of Traversing Eye to Retina (EtE) (b, d). The data are means ± SEM of four experiments

CC[C@H](C)[C@H](NC(=O)CNC(=O)[C@H](CC(=O)O)NC(=O)[C@H](CO)NC(=O)[C@@H](N)Cc1c[nH]cn1)C(=O)N[C@@H](Cc1ccccc1)C(=O)N[C@H](C(=O)N[C@@H](CC(=O)O)C(=O)N[C@@H](CO)C(=O)N[C@@H](Cc1ccc(O)cc1)C(=O)N[C@@H](CO)C(=O)N[C@@H](CCCNC(=N)N)C(=O)N[C@@H](Cc1ccc(O)cc1)C(=O)N[C@@H](CCCNC(=N)N)C(=O)N[C@@H](CCCCN)C(=O)N[C@@H](CCC(N)=O)C(=O)N[C@@H](CCSC)C(=O)N[C@@H](C)C(=O)N[C@H](C(=O)N[C@@H](CCCCN)C(=O)N[C@@H](CCCCN)C(=O)N[C@@H](Cc1ccc(O)cc1)C(=O)N[C@@H](CC(C)C)C(=O)N[C@@H](C)C(=O)N[C@@H](C)C(=O)N[C@H](C(=O)N[C@@H](CC(C)C)C(=O)NCC(=O)N[C@@H](CCCCN)C(=O)N[C@@H](CCCNC(=N)N)C(=O)N[C@@H](Cc1ccc(O)cc1)C(=O)N[C@@H](CCCCN)C(=O)N[C@@H](CCC(N)=O)C(=O)N[C@@H](CCCNC(=N)N)C(=O)N[C@H](C(=O)N[C@@H](CCCCN)C(=O)N[C@@H](CC(N)=O)C(=O)N[C@@H](CCCCN)C(=O)NCC(=O)N[C@@H](CCCNC(=N)N)C(=O)N[C@@H](CCCCN)C(=O)N[C@@H](CCCCN)C(=O)N[C@@H](CCCNC(=N)N)C(=O)N[C@@H](CCCNC(=N)N)C(=O)N[C@@H](CCC(N)=O)C(=O)N[C@@H](CCCNC(=N)N)C(=O)N[C@@H](CCCNC(=N)N)C(=O)N[C@@H](CCCNC(=N)N)C(=O)N1CCC[C@H]1C(=O)N[C@@H](CCC(N)=O)C(=O)O)C(C)C)C(C)C)C(C)C)[C@@H](C)O [PACAP-TAT]
OPL preservation after BCCAO ([1]; BCCAO + eye drops, OPL almost disappeared in several BCCAO-induced degenerated retinas): preserved
Retinal degeneration in light microphotographs after BCCAO ([1]; BCCAO + eye drops, toluidine blue sections, 14 days, severe degeneration in BCCAO+SOCB): only mild degeneration
Retinoprotective efficacy of eye drops, overall / compared with untagged peptide ([1]; BCCAO, topical eye drops in SOCB): attenuate ischemic retinal degeneration via the PAC1 receptor; also recorded: did not prove to have significantly higher retinoprotective efficacy than untagged PACAP
Retinal layer thickness (OLM-ILM, ONL, OPL, INL, IPL) after BCCAO ([1]; BCCAO, eye drops 1 μg/drop, twice a day, five consecutive days, in SOCB, right eye, left eye SOCB control, 14 days, p < 0.05 vs. BCCAO+SOCB): significant amelioration in all retinal layers; also recorded: improved the structure of all the retinal layers
Change of retinal thickness in sham animals ([1]; eye drops alone in sham animals, 1 μg/drop, twice a day, five consecutive days, in SOCB, histology 14 days after operation): did not cause any changes in the retinal thickness
Number of cells in the GCL/100 μm after BCCAO [2]: significantly higher compared to the BCCAO-induced degenerated retinas
Number of cells in the INL/500 μm2 after BCCAO [2]: significantly higher compared to the BCCAO-induced degenerated retinas
Number of cells in the ONL/500 μm2 after BCCAO [2]: significantly higher compared to the BCCAO-induced degenerated retinas
Efficiency of Traversing Eye to Retina (EtE) ([3]; FITC labeled peptides, eye drops 100 nmol/kg, retina separated 2 h after, fluorescence 495 nm excitation/520 nm emission, % of FITC labeled peptide mass in retina to total, means ± SEM of four experiments (7 rats per group)): 3.66 ± 0.67%
EtE relative to the untagged peptide ([3]; PACAP-TAT/VIP-TAT vs PACAP/VIP, respectively, eye drops 100 nmol/kg, 2 h): about three-fold that of PACAP/VIP
FITC fluorescence density per area unit in the retina ([3]; fluorescence microscopy of retina 2 h after eye drops of FITC labeled peptides (100 nmol/kg), vs PACAP/VIP): much higher than in retinas treated with eye drops of PACAP/VIP
